Where a name gives a salt, the structure may show the parent alone.
Columns and labels:
human TLR7 = target: T1, human TLR7 (Homo sapiens, UniProt Q9NYK1); test: HEK-Blue hTLR7 reporter cell assay (SEAP, NF-kB/AP-1) for stimulation of human TLR7; format: cell-based; conditions: HEK-Blue hTLR7 cells, 24 h incubation, SEAP readout; read-out: TLR7_EC50
T1 construct: host or cells: HEK293 (HEK-Blue hTLR7)
T1 sequence (Q9NYK1 27-1049): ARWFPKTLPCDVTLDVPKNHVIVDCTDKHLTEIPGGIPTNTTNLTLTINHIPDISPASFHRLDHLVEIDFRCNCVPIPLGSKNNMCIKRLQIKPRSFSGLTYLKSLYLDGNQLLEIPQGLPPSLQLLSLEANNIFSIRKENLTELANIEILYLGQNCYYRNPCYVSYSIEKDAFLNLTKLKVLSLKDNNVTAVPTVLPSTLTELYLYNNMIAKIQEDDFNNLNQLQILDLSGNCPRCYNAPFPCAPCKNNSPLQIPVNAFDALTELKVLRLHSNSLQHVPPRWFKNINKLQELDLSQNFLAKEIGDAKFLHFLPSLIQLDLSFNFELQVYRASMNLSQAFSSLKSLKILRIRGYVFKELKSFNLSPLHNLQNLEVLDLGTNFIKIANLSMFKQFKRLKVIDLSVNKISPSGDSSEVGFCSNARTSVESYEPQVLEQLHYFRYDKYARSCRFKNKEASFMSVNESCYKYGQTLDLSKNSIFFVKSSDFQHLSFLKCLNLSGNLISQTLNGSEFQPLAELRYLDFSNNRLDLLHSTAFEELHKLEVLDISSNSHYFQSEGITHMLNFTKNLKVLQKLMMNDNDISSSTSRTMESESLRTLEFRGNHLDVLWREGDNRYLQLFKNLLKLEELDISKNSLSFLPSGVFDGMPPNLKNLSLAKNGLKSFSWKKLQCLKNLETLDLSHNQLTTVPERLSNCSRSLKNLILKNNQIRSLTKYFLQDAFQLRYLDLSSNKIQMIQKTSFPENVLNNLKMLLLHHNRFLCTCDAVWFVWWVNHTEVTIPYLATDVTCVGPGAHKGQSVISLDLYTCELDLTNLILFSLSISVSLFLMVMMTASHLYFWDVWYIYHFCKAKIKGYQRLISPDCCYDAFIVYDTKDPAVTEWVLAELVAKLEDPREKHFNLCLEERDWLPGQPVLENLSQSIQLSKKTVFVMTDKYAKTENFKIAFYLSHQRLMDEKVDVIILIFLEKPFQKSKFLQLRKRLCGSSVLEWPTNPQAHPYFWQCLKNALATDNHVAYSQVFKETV
Procedure: (§1) The below tests, involving measuring the in vitro activity of some compounds of the disclosure on TLR7 and TLR8, were carried out using the HEK-Blue™ cells as reporter.
The activity described below, with respect to TLR7, TLR8, IFN-α2a, IL-6, IL29 and TNF-α, is given by the half maximal effective concentration (EC50), which corresponds to the concentration required to obtain a 50% of the activation. The lower the EC50, the less the concentration of the compound is required to produce 50% of maximum activation and the higher the potency.
(§2) In Vitro Assay for Studying the Stimulation of Human TLR7 and TLR8:
(§3) HEK-Blue™ hTLR7 Cells (#hkb-htlr7) and HEK-Blue™ hTLR8 Cells (#hkb-htlr8) from InvivoGen were used according to the manufacturer's instructions. These Reporter HEK293 cells were obtained by co-transfection of the hTLR7 or TLR8 gene and an optimized Secreted Embryonic Alkaline Phosphatase (SEAP) reporter gene which is placed under the control of the IFN-β minimal promoter fused to five NF-κB and AP-1-binding sites. Stimulation with a TLR7/8 ligand activates NF-kB and AP-1 which induce the production of SEAP. The cells are seeded in 96-well plate at 3.10E4 cells/well and incubated 18 to 24 h at 37° C., 5% CO2 before adding the compounds to evaluate. The cells are subsequently incubated with 3-fold serial dilutions of each of the compounds (0.01 to 20 μM) for 24 hours at 37° C., 5% CO2. Next, 20 μL of the supernatant is harvested and incubated with 200 μL of QUANTI-Blue™ Solution.

human TLR8 = target: T2, human TLR8 (Homo sapiens, UniProt Q9NR97); test: HEK-Blue hTLR8 reporter cell assay (SEAP, NF-kB/AP-1) for stimulation of human TLR8; format: cell-based; conditions: HEK-Blue hTLR8 cells, 24 h incubation, SEAP readout; read-out: TLR8_EC50
T2 construct: host or cells: HEK293 (HEK-Blue hTLR8)
T2 sequence (Q9NR97 27-1041): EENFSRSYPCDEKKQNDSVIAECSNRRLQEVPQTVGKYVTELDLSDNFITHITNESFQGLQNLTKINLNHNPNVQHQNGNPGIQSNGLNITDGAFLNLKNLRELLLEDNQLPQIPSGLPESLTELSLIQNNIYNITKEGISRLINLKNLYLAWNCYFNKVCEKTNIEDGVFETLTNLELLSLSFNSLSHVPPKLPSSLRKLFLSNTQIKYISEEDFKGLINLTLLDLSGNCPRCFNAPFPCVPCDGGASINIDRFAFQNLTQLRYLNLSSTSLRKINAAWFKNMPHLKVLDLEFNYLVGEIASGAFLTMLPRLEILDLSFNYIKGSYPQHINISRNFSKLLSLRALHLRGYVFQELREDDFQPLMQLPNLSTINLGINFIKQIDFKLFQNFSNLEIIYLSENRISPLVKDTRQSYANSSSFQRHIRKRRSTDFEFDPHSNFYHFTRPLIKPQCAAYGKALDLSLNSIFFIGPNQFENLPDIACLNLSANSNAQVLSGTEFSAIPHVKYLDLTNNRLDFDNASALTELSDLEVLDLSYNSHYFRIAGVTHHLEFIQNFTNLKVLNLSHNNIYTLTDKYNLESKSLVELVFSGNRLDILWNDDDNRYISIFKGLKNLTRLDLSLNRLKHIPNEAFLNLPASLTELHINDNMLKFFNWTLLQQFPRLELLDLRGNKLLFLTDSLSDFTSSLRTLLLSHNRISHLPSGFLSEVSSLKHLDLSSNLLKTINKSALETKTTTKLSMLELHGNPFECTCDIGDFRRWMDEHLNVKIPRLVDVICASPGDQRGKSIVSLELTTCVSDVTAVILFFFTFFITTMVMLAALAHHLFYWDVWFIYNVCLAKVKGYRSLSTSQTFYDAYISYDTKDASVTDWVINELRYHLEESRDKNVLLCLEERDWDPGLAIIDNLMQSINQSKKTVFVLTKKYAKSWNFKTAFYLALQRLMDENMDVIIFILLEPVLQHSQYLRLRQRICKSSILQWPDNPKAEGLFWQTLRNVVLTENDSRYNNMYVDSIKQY
Procedure: as §1, §2
as §3, with “The cells are subsequently incubated with 3-fold serial dilutions of each of the compounds (0.01 to 20 μM) for 24 hours at 37° C., 5% CO2.” left out

EC50 (human TLR7) [nM] | EC50 (human TLR8) [nM] | SMILES
1130 | 467 | CCCCc1nc2c(N)nnc(N(C)Cc3ccc(CN4CCOCC4)cc3)c2n1C [Compound 44, 2-butyl-N7,1-dimethyl-N7-(4-(morpholinomethyl)benzyl)-1H-imidazo[4,5-d]pyridazine-4,7-diamine]
10600 | 12700 | CCCCc1nc2c(N)nnc(N(C)Cc3ccccc3)c2n1C [Compound 90, N7-benzyl-2-butyl-N7,1-dimethyl-1H-imidazo[4,5-d]pyridazine-4,7-diamine]
7740 | > 20000 | CCCCc1nc2c(N)nnc(OC(C)C)c2n1CCC1CCNCC1 [Compound 78, 2-butyl-7-isopropoxy-1-(2-(piperidin-4-yl)ethyl)-1H-imidazo[4,5-d]pyridazin-4-amine]
344 | > 20000 | CCCCc1nc2c(N)nnc(OC3CCOCC3)c2n1Cc1ccc(OC)cc1 [Compound 57, 2-butyl-1-(4-methoxybenzyl)-7-((tetrahydro-2H-pyran-4-yl)oxy)-1H-imidazo[4,5-d]pyridazin-4-amine]
649 | > 20000 | CCCCc1nc2c(N)nnc(C3=CCCC3)c2n1Cc1ccc(OC)cc1 [Compound 15, 2-butyl-7-(cyclopent-1-en-1-yl)-1-(4-methoxybenzyl)-1H-imidazo[4,5-d]pyridazin-4-amine hydrochloride]
107 | > 16500 | CCCCc1nc2c(N)nnc(OC(C)C)c2n1Cc1ccc(CNS(C)(=O)=O)cc1 [Compound 115, N-(4-((4-amino-2-butyl-7-isopropoxy-1H-imidazo[4,5-d]pyridazin-1-yl)methyl)benzyl)methanesulfonamide]
169 | > 20000 | CCCCc1nc2c(N)nnc(OC(C)C)c2n1Cc1ccccc1 [Compound 80, 1-benzyl-2-butyl-7-isopropoxy-1H-imidazo[4,5-d]pyridazin-4-amine hydrochloride]
775 | > 20000 | CCCCc1nc2c(N)nnc(NC)c2n1Cc1ccc(OC)cc1 [Compound 53, 2-butyl-1-(4-methoxybenzyl)-N7-methyl-1H-imidazo[4,5-d]pyridazine-4,7-diamine]
296 | > 18500 | CCCCc1nc2c(N)nnc(/C=C/C(C)C)c2n1Cc1ccc(CN)cc1 [Compound 132, (E)-1-(4-(aminomethyl)benzyl)-2-butyl-7-(3-methylbut-1-en-1-yl)-1H-imidazo[4,5-d]pyridazin-4-amine]
717 | > 20000 | CCCc1nc2c(N)nnc(OC(C)C)c2n1Cc1ccc(CN)cc1 [Compound 158, 1-(4-(aminomethyl)benzyl)-7-isopropoxy-2-propyl-1H-imidazo[4,5-d]pyridazin-4-amine]
1550 | 6260 | CCCCc1nc2c(N)nnc(OC(C)C)c2n1Cc1cccc(CNC2CS(=O)(=O)C2)c1 [Compound 129, 3-((3-((4-amino-2-butyl-7-isopropoxy-1H-imidazo[4,5-d]pyridazin-1-yl)methyl)benzyl)amino)thietane 1,1-dioxide]
2100 | > 20000 | CCCCc1nc2c(N)nnc(OC(C)C)c2n1Cc1ccc(C#N)cn1 [Compound 27, 6-((4-amino-2-butyl-7-isopropoxy-1H-imidazo[4,5-d]pyridazin-1-yl)methyl)nicotinonitrile]
8 | 637 | CCCCc1nc2c(N)nnc(OC(C)C)c2n1Cc1ccc(CNC(C)C)cc1 [Compound 83, 2-butyl-7-isopropoxy-1-(4-((isopropylamino)methyl)benzyl)-1H-imidazo[4,5-d]pyridazin-4-amine dihydrochloride]
11 | 1490 | CCCCc1nc2c(N)nnc(OC(C)C)c2n1Cc1ccc(CNC)cc1 [Compound 118, 2-butyl-7-isopropoxy-1-(4-((methylamino)methyl)benzyl)-1H-imidazo[4,5-d]pyridazin-4-amine]
607 | > 20000 | CCCCc1nc2c(N)nnc(OC(C)C)c2n1Cc1cccc(CN2CCNCC2)c1 [Compound 131, 2-butyl-7-isopropoxy-1-(3-(piperazin-1-ylmethyl)benzyl)-1H-imidazo[4,5-d]pyridazin-4-amine]
12600 | > 20000 | CCCCc1nc2c(N)nnc(OC(C)C)c2n1CCCCN [Compound 149, 3-(4-aminobutyl)-2-butyl-4-isopropoxy-imidazo[4,5-d]pyridazin-7-amine dihydrochloride salt]
2640 | > 20000 | CCCCc1nc2c(N)nnc(N3CCCC3)c2n1C[C@H]1CC[C@H](CN)CC1 [Compound 142, 1-(((1R,4R)-4-(aminomethyl)cyclohexyl)methyl)-2-butyl-7-(pyrrolidin-1-yl)-1H-imidazo[4,5-d]pyridazin-4-amine]
17 | 401 | CCCCc1nc2c(N)nnc(OC(C)C)c2n1Cc1ccc(CNC2(C)CCC2)cc1 [Compound 39, 2-butyl-7-isopropoxy-1-(4-(((1-methylcyclobutyl)amino)methyl)benzyl)-1H-imidazo[4,5-d]pyridazin-4-amine]
> 20000 | 9420 | CCCCc1nc2c(N)nnc(N(C)Cc3ccc(C#N)cc3)c2n1C [Compound 45, 4-(((4-amino-2-butyl-1-methyl-1H-imidazo[4,5-d]pyridazin-7-yl)(methyl)amino)methyl)benzonitrile]

Source: patent US12583861B2, “Derivatives of imidazo[4,5-d]pyridazine, their preparation and their therapeutic application” (SANOFI, priority 2021, dated 2026)
